Laboratory results taken from patent US9089139B2, “Agri-horticultural pest control compositions comprising 4-(3-butynyl)aminopyrimidine derivatives” (SDS Biotech K. K., priority 2011, dated 2015).
Like-named read-outs stand apart in the source and are kept apart here.

Tests used:
Sphaerotheca fuliginea = assay: Test 1: control effect against powdery mildew on cucumber (control index); assay type: in vivo, Sphaerotheca fuliginea on cucumber (variety: SAGAMI HANJIRO); details: for pest or weed control at 10 ppm: read-out: Control index
From the text: (§1) The expected efficacies of the combinations of the individual active compounds can be determined using Colby's formula, which is described below [Colby, S. R. “Calculating synergistic and antagonistic responses of herbicide combinations,” Weeds 15, 20-22 (1967)]: Colby's formula: E=A+B−(A×B/100) E is the predicted efficacy (control index) with reference to the untreated control when using the mixture of the active compound X at the concentration x and the active compound Y at the concentration y; A is the efficacy (control index) with respect to the untreated control when using the active compound X at the concentration x; B is the efficacy (control index) with respect to the untreated control when using the active compound […] at the concentration y.
(§2) Potted young seedlings of cucumber (variety: SAGAMI HANJIRO; in two-leaf stage) were sprayed with invention compounds formulated in accordance with Preparations and the existing antimicrobial active compounds listed in Table 3 (all compounds are identified by associated letters of the alphabet) after they were diluted with water to predetermined concentrations so that they would serve as active compounds; a spray gun was used to provide a spray rate of 15 ml per pot. After air-drying, the seedlings were inoculated with conida of Sphaerotheca fuliginea by spraying a suspension of the conida. Thereafter, the seedlings were cultivated for 14 days in a greenhouse and the percentage of diseased area was investigated for each leaf; based on the result of this investigation, the control index was calculated using the following formula: Control index={(percentage of diseased area on the untreated control−percentage of diseased area on treated sample)/percentage of diseased area on the untreated control}×100

[1] = tested on: Pseudoperonospora cubensis; assay: Control effect against Pseudoperonospora cubensis on cucumber seedlings (control index as in Test 1); assay type: in vivo
From the text: as §1, §2
Potted young seedlings of cucumber (variety: SAGAMI HANJIRO; in two-and-a-half leaf stage) were sprayed with invention agri-horticulatural pest control compositions formulated in accordance with Preparations and the existing antimicrobial active compounds listed in Table 5 (all compounds are identified by associated letters of the alphabet) after they were diluted with water to predetermined concentrations so that they would serve as active compounds; a spray gun was used to provide a spray rate of 15 ml per pot. After air-drying, the seedlings were inoculated with conida of Pseudoperonospora cubensis by spraying a suspension of the conida. Immediately thereafter, the seedlings were held for a day under the conditions of 21° C. and 100% humidity. The seedlings were then placed at room temperature and 3 days later, the percentage of diseased area was investigated for each leaf; based on the result of this investigation, the control index was calculated as in Test 1.

Aphis gossypii = assay: Test 3: insecticidal effect on Aphis gossypii (mortality rate); assay type: in vivo
From the text: as §1
Invention compounds and the existing insecticidal active compounds shown in Table 7 (hereinbelow, the compound names are identified by associated letters of the alphabet) were diluted with water to predetermined concentrations so that they would serve as active ingredients. Cucumber leaves with a diameter of 3 cm were placed on plastic cups filled with 0.5% soft agar and five adult aphids were released to feed on the leaves. After standing overnight, the adult insects were removed and the number of nymph as an offspring was counted; each of the prepared liquid samples of insecticide was sprayed in 0.4 ml portions and two days later, the number of dead insects was countd to calculate the mortality rate. The expected efficacies of the combinations of the individual active compounds were calculated by Colby's formula.

[2] = Podosphaera fuliginea, 336 h, individual active compound, test concentration 1 ppm
[3] = individual active compound, test concentration 10 ppm
[4] = individual active compound, test concentration 1 ppm
[5] = Podosphaera fuliginea, 336 h, individual active compound, test concentration 10 ppm
[6] = individual active compound, test concentration 0.1 ppm
[7] = Podosphaera fuliginea, 336 h, individual active compound, test concentration 100 ppm

FC(F)c1ccccc1C#CCCNc1ncnc2ccccc12 [compound 100] showed a pest or weed control at 0.5 ppm (Sphaerotheca fuliginea; Podosphaera fuliginea, 336 h, individual active compound, test concentration 0.5 ppm) of 55%, a pest or weed control at 0.05 ppm ([1]; Pseudoperonospora cubensis, 72 h, individual active compound, test concentration 0.05 ppm, read-out: Observed value Control index) of 42% and a pest or weed control at 0.1 ppm (Aphis gossypii; Aphis gossypii, 48 h, individual active compound, test concentration 0.1 ppm, read-out: Observed value Mortality rate) of 40%.
Work on CCC(Nc1ncnc(C)c1Cl)c1ccc(OC(F)F)cc1 (stereo not drawn) [Fa: Diflumetorim, diflumetorim] yielded a pest or weed control at 1 ppm (Sphaerotheca fuliginea; [2]) of 42%.
In the case of COCC(=O)N(c1c(C)cccc1C)[C@H](C)C(=O)OC [Ba: Metalaxyl M, metalaxyl-M], the “Observed value Control index” value [1, 3] is reported as 35.
Fc1ccc(Oc2ccnc3cc(Cl)cc(Cl)c23)cc1 [Ia: Quinoxyfen, quinoxyfen] gave a pest or weed control at 1 ppm (Sphaerotheca fuliginea; [2]) of 39%.
For COc1ccccc1N1CCS/C1=C(/C#N)Sc1cc(C(F)(F)F)ccc1F [Nd: Flutianil, flutianil], the Control index (Sphaerotheca fuliginea; [4]) was 42.
Molecule CC(C)OC(=O)N[C@H](C(=O)N[C@H](C)c1nc2ccc(F)cc2s1)C(C)C [Jb: Benthiavalicarb-isopropyl, benthiavalicarb] has a pest or weed control at 0.5 ppm ([1]; Pseudoperonospora cubensis, 72 h, read-out: Observed value Control index) of 12%.
For CC(C)(C)C(O)(CCc1ccc(Cl)cc1)Cn1cncn1 (stereo not drawn) [Hb: Tebuconazole, tebuconazole], the pest or weed control at 10 ppm (Sphaerotheca fuliginea; [5]) was 42%.
For C#CCOc1ccc(CCNC(=O)C(OCC#C)c2ccc(Cl)cc2)cc1OC (stereo not drawn) [Jc: Mandipropamid, mandipropamid], the “Observed value Control index” value ([1]; individual active compound, test concentration 0.5 ppm) was 21.
For N#Cc1c(Cl)c(Cl)c(Cl)c(C#N)c1Cl [Aa: Chlorothalonil, chlorothalonil], the pest or weed control at 5 ppm (Sphaerotheca fuliginea; Podosphaera fuliginea, 336 h, individual active compound, test concentration 5 ppm) was 48% and the pest or weed control at 0.5 ppm ([1]; Pseudoperonospora cubensis, 72 h, individual active compound, test concentration 0.5 ppm, read-out: Observed value Control index) was 49%.
Molecule COc1ccc(C(=CC(=O)N2CCOCC2)c2ccc(Cl)cc2)cc1OC [Ja: Dimethomorph, dimethomorph] has a pest or weed control at 5 ppm ([1]; Pseudoperonospora cubensis, 72 h, individual active compound, test concentration 5 ppm, read-out: Observed value Control index) of 21%.
With O=[N+]([O-])NC1=NCCN1Cc1ccc(Cl)nc1 [Q: Imidacloprid, imidacloprid, reference compound] the pest or weed control at 0.01 ppm (Aphis gossypii; Aphis gossypii, 48 h, individual active compound, test concentration 0.01 ppm, read-out: Observed value Mortality rate) was 50%.
With CC(=O)N1C(=O)N(NCc2cccnc2)Cc2cc(C(F)(C(F)(F)F)C(F)(F)F)ccc21 [U: Pyrifluquinazon, pyrifluquinazon, reference compound] the “Observed value Mortality rate” value (Aphis gossypii; individual active compound, test concentration 0.01 ppm) was 40.
For N#CCNC(=O)c1cnccc1C(F)(F)F [T: Flonicamid, flonicamid, reference compound], the “Observed value Mortality rate” value (Aphis gossypii; [4]) was 43.
COC(=O)NC(=S)Nc1ccccc1NC(=S)NC(=O)OC [Ca: Thiophanate-methyl, thiophanate-methyl] gave a pest or weed control at 2 ppm (Sphaerotheca fuliginea; Podosphaera fuliginea, 336 h, individual active compound, test concentration 2 ppm) of 40%.
For CO/C=C(/C(=O)OC)c1ccccc1Oc1cc(Oc2ccccc2C#N)ncn1 [Ea: Azoxystrobin, azoxystrobin], the Control index (Sphaerotheca fuliginea; individual active compound, test concentration 100 ppm) was 21 and the “Observed value Control index” value [1, 4] was 45.
Molecule CC1COC(Cn2cncn2)(c2ccc(Oc3ccc(Cl)cc3)cc2Cl)O1 (stereo not drawn) [Ha: Difenoconazole, difenoconazole] has a pest or weed control at 10 ppm (Sphaerotheca fuliginea; [5]) of 27%.
In the case of CCNC(=O)NC(=O)/C(C#N)=N/OC [Na: Cymoxanil, cymoxanil], the pest or weed control at 10 ppm ([1]; Pseudoperonospora cubensis, 72 h, individual active compound, test concentration 10 ppm, read-out: Observed value Control index) is reported as 45%.
In the case of CCc1nn(C)c(C(=O)NCc2ccc(Oc3ccc(C)cc3)cc2)c1Cl [R: Tolfenpyrad, tolfenpyrad, reference compound], the pest or weed control at 0.5 ppm (Aphis gossypii; Aphis gossypii, 48 h, individual active compound, test concentration 0.5 ppm, read-out: Observed value Mortality rate) is reported as 48%.
For CC1(C)[C@H](C(=O)O[C@H](C#N)c2cccc(Oc3ccccc3)c2)[C@@H]1/C=C\C(=O)OC(C(F)(F)F)C(F)(F)F [S: Acrinathrin], the “Observed value Mortality rate” value (Aphis gossypii; [6]) was 35.
With CC(C)(C)C(=O)C(Oc1ccc(Cl)cc1)n1cncn1 (stereo not drawn) [Hc: Triadimefon, triadimefon] the pest or weed control at 100 ppm (Sphaerotheca fuliginea; [7]) was 21%.
O=C(Cc1ccccc1)N/C(=N\OCC1CC1)c1c(C(F)(F)F)ccc(F)c1F [Nc: Cyflufenamid, cyflufenamid] showed a pest or weed control at 1 ppm (Sphaerotheca fuliginea; [2]) of 49%.
With Cc1ccc(-c2c(Cl)nc(C#N)n2S(=O)(=O)N(C)C)cc1 [Fb: Cyazofamid, cyazofamid] the pest or weed control at 0.1 ppm ([1]; Pseudoperonospora cubensis, 72 h, individual active compound, test concentration 0.1 ppm, read-out: Observed value Control index) was 50%.
Work on Cc1ccc2nc3sc(=O)sc3nc2c1 [Nb: Chinomethionate, chinomethionat] yielded a pest or weed control at 10 ppm (Sphaerotheca fuliginea; Podosphaera fuliginea, 336 h) of 38%.
In the case of mancozeb [Ac: Manzeb], the “Observed value Control index” value [1, 4] is reported as 52.
CC(C)CC(C)c1sccc1NC(=O)c1cn(C)nc1C(F)(F)F (stereo not drawn) [Da: Penthiopyrad, penthiopyrad] gave a pest or weed control at 1 ppm (Sphaerotheca fuliginea; [2]) of 51%.
CON=C(C(=O)OC)c1ccccc1CON=C(C)c1cccc(C(F)(F)F)c1 [Ec: Trifloxystrobin, trifloxystrobin] gave a pest or weed control at 100 ppm (Sphaerotheca fuliginea; [7]) of 24%.
COC(=O)N(OC)c1ccccc1COc1ccn(-c2ccc(Cl)cc2)n1 [Ed: Pyraclostrobin, pyraclostrobin] gave a pest or weed control at 100 ppm (Sphaerotheca fuliginea; [7]) of 22%.
For CCCOC/C(=N\c1ccc(Cl)cc1C(F)(F)F)n1ccnc1 [Hd: Triflumizole, triflumizole], the pest or weed control at 10 ppm (Sphaerotheca fuliginea; [5]) was 39%.
Molecule CC(Cc1ccc(C(C)(C)C)cc1)CN1C[C@@H](C)O[C@@H](C)C1 (stereo partly drawn) [He: Fenpropimorph, fenpropimorph] has a pest or weed control at 100 ppm (Sphaerotheca fuliginea; [7]) of 12%.
Work on COCc1ccccc1C#CCCNc1ncnc2c(Cl)cc(Cl)cc12 [compound 338] yielded a melting point of 161 to 162 °C.
Work on Fc1ccc(C#CCCNc2ncnc3sccc23)c(F)c1 [compound 41] yielded a melting point of 177 to 178 °C.
For Cc1c(Br)c2ccc(F)cc2n1S(=O)(=O)c1ncn(S(=O)(=O)N(C)C)n1 [Fc: Amisulbrom, amisulbrom], the “Observed value Control index” value [1, 6] was 37.
COP(=O)(NC(C)=O)SC (stereo not drawn) [P: Acephate, acephate, reference compound] gave a pest or weed control at 10 ppm (Aphis gossypii; Aphis gossypii, 48 h, read-out: Observed value Mortality rate) of 47%.
With Fc1ccc(C#CCCNc2ncnc3ccccc23)cc1F [compound 166] the melting point was 161 to 162 °C.
With C(#Cc1csc(-c2ccccc2)n1)CCNc1ncnc2sccc12 [Compound No. 76, 4-[4-(2-Phenylthiazol-4-yl)-3-butynylamino]thieno[2,3-d]pyrimidine] the melting point was 134 to 136 °C.
With CO/N=C(/C(=O)OC)c1ccccc1COc1ccccc1C [Eb: Kresoxim-methyl, kresoxim-methyl] the pest or weed control at 100 ppm (Sphaerotheca fuliginea; [7]) was 29% and the pest or weed control at 1 ppm ([1]; Pseudoperonospora cubensis, 72 h, individual active compound, test concentration 1 ppm, read-out: Observed value Control index) was 42%.
Work on CSC(=O)c1cccc2nnsc12 [Ma: Acibenzolar-S-methyl, acibenzolar-5-methyl] yielded a Control index (Sphaerotheca fuliginea; [3]) of 38.
CCCCCCCCCCCCc1ccc(S(=O)(=O)O)cc1.CCCCCCCCCCCCc1ccc(S(=O)(=O)O)cc1.CCCCCCCCCCCCc1ccc(S(=O)(=O)O)cc1.NC(N)=NCCCCCCCCNCCCCCCCCN=C(N)N [Ab: Iminoctadine albesilate, iminoctadine albesilate] gave a Control index (Sphaerotheca fuliginea; individual active compound, test concentration 2 ppm) of 41.
Work on Fc1cncc(C#CCCNc2ncnc3ccccc23)c1 [compound 193] yielded a melting point of 145 to 150 °C.
In the case of CC(C)[Si](C#CCCNc1ncnc2sccc12)(C(C)C)C(C)C, the melting point is reported as 196 to 198 °C.
Molecule OCc1cc(C#CCCNc2ncnc3ccccc23)co1 [compound 209] has a melting point of 135 to 147 °C.
O=[N+]([O-])c1cccc(C#CCCNc2ncnc3sccc23)c1 [compound 39] gave a melting point of 171 to 172 °C.
Clc1cccc(C#CCCNc2ncnc3ccccc23)c1Cl [compound 171] showed a melting point of 175 to 176 °C.
OCc1cccc(C#CCCNc2ncnc3ccccc23)c1 [compound 131] gave a melting point of 113 to 115 °C.
For C(#Cc1nccs1)CCNc1ncnc2sccc12 [compound 62], the melting point was 128 to 129 °C.
COc1cccc(Oc2nc(C#CCCNc3ncnc4ccccc34)cs2)c1 [compound 216] gave a melting point of 77 to 79 °C.
